Laboratory results from patent publication US9399045B2, “Inhibition of choroidal neovascularization” (Washington University, priority 2011, dated 2016).

Assays:
ABCA1 gene expression = ABCA1 gene expression in peritoneal macrophages treated with LXR agonist (real time qPCR); assay type: cell-based, mouse; details: peritoneal young or old macrophages, 24 hours, 0 to 10 μM, FIG. 4a-b
Method: (§1) Peritoneal macrophages recruitment was elicited by intraperitoneal injection of 4% thioglycollate. Five days after injection, macrophages were harvested and cultured in RPMI-1640 overnight (Gibco, Grand Island, N.Y.). Macrophages were then washed with RPMI-1640 and non-adherent cells removed. Total RNA was prepared from splenic macrophage, peritoneal macrophages, retina, choroid or PBMCs using the RNeasy mini kit (Qiagen inc., Valencia, Calif.). cDNA was prepared using the High Capacity cDNA Archive Kit (Applied Biosystems) and PCR amplifications of cDNA were performed using Taqman probe-based gene expression assay (Applied Biosystems) as previously described (Kelly, J., et al., Senescence regulates macrophage activation and angiogenic fate at sites of tissue injury in mice. J Clin Invest 117, 3421-3426, 2007). Primer and probe sets were as follows: ActB. Mm00607939_s1; ABCA1, Mm00442649_ml; ABCG1, Mm01348250_ml; IL-6, Mm00446190_ml; FasL, Mm00438864_ml; IL-10, Mm99999062_ml; 18s rRNA. Hs99999901_s1; ABCA1, Hs00442663_ml; ABCG1: Hs 01555199_gl; IL10, Hs00961622_ml. Young and old peritoneal macrophages were treated with Liver X Receptor (LXR) agonist, TO-901317 (Sigma-Aldrich, St. Louis, Mo.) for 24 hours. […] Treated macrophages were analyzed for ABCA1 and ABCG1 gene expression and their ability to inhibit HMVECs proliferation was tested.

ABCG1 gene expression = ABCG1 gene expression in peritoneal macrophages treated with LXR agonist (real time qPCR); assay type: cell-based, mouse; details: peritoneal young or old macrophages, 24 hours, 0 to 10 μM, FIG. 4a-b
Method: as §1

HMVECs = assay: Vascular endothelial cell proliferation assay: HMVECs co-cultured with treated peritoneal macrophages, [3H] thymidine; assay type: cell-based, human
Method: Cell proliferation was measured with an adaptation of a previously described method (Khan, A. A. & Apte, R. S. An assay for macrophage-mediated regulation of endothelial cell proliferation. Immunobiology 213, 695-699, 2008). HMVECs (1×10^4 cells) in log phase were cultured in 96-well round-bottomed plates for adherence. HMVECS cells were then co-cultured with peritoneal macrophages (1:25 ratio) and incubated with 5 μCi/ml [^3H] thymidine (PerkinElmer) for 24 hours. Cells were harvested onto glass fiber filters (Packard) and incorporated [3H] thymidine was read using TopCount NXT (PerkinElmer).
Young and old peritoneal macrophages were treated with Liver X Receptor (LXR) agonist, TO-901317 (Sigma-Aldrich, St. Louis, Mo.) for 24 hours. LXR agonist was dissolved in DMSO (vehicle) and treatment dosage ranged from 0 to 10 μM. Treated macrophages were analyzed for ABCA1 and ABCG1 gene expression and their ability to inhibit HMVECs proliferation was tested.
Peritoneal macrophages were transfected with 50 nM miScript miR33 inhibitor (anti-miR33) or negative control inhibitor (con anti-miR) using HiPerFect Transfection reagent (Qiagen). The transfection efficiency of macrophages was assessed using BLOCK-iT Fluorescent Oligo (Invitrogen). After miR33 inhibition, target genes and proteins were analyzed by qPCR and Western blot.

ABCA1 expression = ABCA1 expression in tissues of old mice after 5 days of intraperitoneal TO-901317; assay type: in vivo, mouse; details: 25 or 50 mg/kg/day for 5 days, FIG. 4e-g and FIG. 10
Method: (§2) Total RNA was prepared from splenic macrophage, peritoneal macrophages, retina, choroid or PBMCs using the RNeasy mini kit (Qiagen inc., Valencia, Calif.). cDNA was prepared using the High Capacity cDNA Archive Kit (Applied Biosystems) and PCR amplifications of cDNA were performed using Taqman probe-based gene expression assay (Applied Biosystems) as previously described (Kelly, J., et al., Senescence regulates macrophage activation and angiogenic fate at sites of tissue injury in mice. J Clin Invest 117, 3421-3426, 2007). Primer and probe sets were as follows: ActB. Mm00607939_s1; ABCA1, Mm00442649_ml; ABCG1, Mm01348250_ml; IL-6, Mm00446190_ml; FasL, Mm00438864_ml; IL-10, Mm99999062_ml; 18s rRNA. […]
(§3) Whole cell lysate was extracted from mouse peritoneal macrophages or human PBMCs using lysis buffer (50 mM Tris (pH=7.4), 150 mM NaCl, 1% EDTA, 10% TritonX, and 1% SDS) with proteinase inhibitor (Complete, Roche). […] Proteins were detected and analyzed using the Odyssey Infrared Imaging System (LI-COR Biosciences, Lincoln, Nebr.). Band densities of ABCA1 and ABCG1 were quantified and normalized to β-actin.
(§4) Old mice (>18 months) were given a daily intraperitoneal injection of vehicle, 25 mg/kg or 50 mg/kg TO-901317. After five consecutive days treatment, CNV was induced in one set of mice (5 of each group) and analyzed as described above. […]

ABCG1 expression = ABCG1 expression in tissues of old mice after 5 days of intraperitoneal TO-901317; assay type: in vivo, mouse; details: 25 or 50 mg/kg/day for 5 days, FIG. 4e-g and FIG. 10
Method: as §2, §3, §4

[1] = test system: choroidal neovascularization (CNV); assay: Laser-induced CNV in old mice; assay type: in vivo, mouse; details: intraperitoneal, 25 or 50 mg/kg/day for 5 days prior to laser, FIG. 4h-i
Method: Rupture of Bruchs membrane with laser was used to initiate CNV in mice as described previously (Apte R S, Niederkorn J Y. Isolation and characterization of a unique natural killer cell inhibitory factor present in the anterior chamber of the eye. J. Immunol. 156:2667-2673, 1996). Briefly, mice were anesthetized by injecting ketamine hydrochloride (100 mg/kg) and xylazine (13.4 mg/kg) intraperitoneally, and their pupils were dilated with 1% tropicamide. Using argon green laser, four laser burns were placed around the optic nerve (0.1 second, 50 μm, and 110 mW). Seven days after laser, mice were anesthetized as described above and perfused intraventricularly with FITC-dextran (Sigma-Aldrich). Mice were euthanized in a CO2 chamber, and their eyes were harvested for tissue processing. […]
Micro scissors were used to make four radial incisions in the sclerochoroidal “eyecup” to prepare choroidal flat mounts on glass slides. […] The choroidal flat mounts were analyzed for the presence of CNV by confocal microscopy. The extent of choroidal neovascularization was quantified by Metamorph Imaging software. […]
as §4

O=S(=O)(c1ccccc1)N(CC(F)(F)F)c1ccc(C(O)(C(F)(F)F)C(F)(F)F)cc1 [TO-901317, N-(2,2,2-trifluoro-ethyl)-N-[4-(2,2,2-tri-fluoro-1-hydroxy-1-trifluoromethyl-ethyl)-phenyl]-benzenesulfonamide]
ABCA1 gene expression (ABCA1 gene expression): dose-dependent upregulation
ABCG1 gene expression (ABCG1 gene expression): dose-dependent upregulation
ability of treated macrophages to inhibit HMVECs proliferation (HMVECs; Abca1−/− macrophages treated with LXR agonist): does not restore their ability to inhibit HMVECs proliferation
ability of treated macrophages to inhibit endothelial cell proliferation (HMVECs; old macrophages treated with LXR agonist, co-cultured with HMVECs, FIG. 4d): completely restored their ability to inhibit endothelial cell proliferation
ABCA1 expression compared to vehicle treated mice (ABCA1 expression): strong systemic upregulation
ABCG1 expression compared to vehicle treated mice (ABCG1 expression): strong systemic upregulation
CNV compared to vehicle treated old mice [1]: significant and dose dependent reduction in CNV
